Source: US7888042B2, “Methods for identifying insulin mimetics” (Ohio University, priority 2005, dated 2011)

Legend:
insulin = insulin (Bos taurus, UniProt P01317); experiment: Binding of α-PGG to insulin
ob/ob mice [1] = experiment: Glucose tolerance test in ob/ob mice, oral dose; assay type: in vivo
Method: (§1) Either 6-8 week old male db/db mice or 8-12 week old male ob/ob mice were treated with aqueous solutions of α-PGG by either oral delivery (˜10 μL, A & B) or ip injection (˜50 μL, C, & D). (n=8-10, mean±SD, one-way ANOVA). α-PGG (●); vehicle (∘). α-PGG (20 mg/kg) was orally delivered without glucose to fasting db/db mice (A *, P<0.02; **, P<0.01; ***, P<0.001) or with glucose (0.4 g/kg body weight) to fasting ob/ob mice (B, glucose tolerance test). α-PGG (20 mg/kg) was ip injected into ob/ob mice on day 0 and day 4 (C). A single ip injection (20 mg/kg) of α-PGG was administered to ob/ob mice (D). Glucose (A, B, C) or insulin (D) was determined from sera or plasma isolated from tail vein blood. Animal studies. Genetically diabetic db/db mice or obese ob/ob mice were purchased from Jackson Lab. Male mice of 2-3 months of age were used. Unless otherwise stated, 10 mice (N=10) were used per group. α-PGG was either orally administered or intraperitoneally (ip) injected in the form of an aqueous solution at 20 mg/kg body weight with a 1-cc sterile plastic syringe. At different times after the α-PGG administration, blood or plasma was collected from the tail vein for measurement of glucose and insulin concentrations using commercial kits. Vehicle (aqueous solution) treated mice were used as controls and were statistically compared with the α-PGG treated mice. All animal studies were conducted in accord with the Ohio University guidelines for the use and care of laboratory animals.

Akt = Akt phosphorylation, Western blot; assay type: cell-based; conditions: 3T3-L1 adipocytes, 20 or 40 μM, 15 min
Method: (A) Glucose transport was measured by determining [^3H]-2-deoxyglucose uptake stimulated by either insulin or α-PGG in 3T3-L1 cells in the presence or absence of HNMPA-(AM)3, an inhibitor of IR tyrosine kinase activity (24); wortmannin, an inhibitor of PI 3-kinase (25), or cytochalasin B, an inhibitor of GLUT4 (26), (n=4, mean±SD). (B) Cells were induced by 20 or 40 μM α-PGG or 100 nM insulin for 15 min. Cell lysates were separated by PAGE and analyzed for phosphorylation of IR (in CHO-IR cells) or Akt (in adipocytes) using antibodies specific to the target proteins. (C) Cells were treated with α-PGG and insulin in a fashion similar to (B) and assayed for their respective PI-3 kinase activity with a radioactive TLC method (27). (D) In similar experiments, intact cells were analyzed by confocal microscopy for translocation of GLUT4 using anti-GLUT4 antibodies.
Protein phosphorylation/activation and GLUT4 translocation. To investigate signal transduction induced by α-PGG, proteins from 3T3-L1 adipocytes or CHO-IR cells (23), which were treated with α-PGG or insulin for 15 min, were isolated, separated by PAGE, blotted on nylon membranes, and analyzed by Western blotting with antibodies against either IR or Akt. […]

ob/ob mice [2] = experiment: Plasma insulin in ob/ob mice, ip injection; assay type: in vivo; conditions: single ip injection 20 mg/kg
Method: as §1, with “All animal studies were conducted in accord with the Ohio University guidelines for the use and care of laboratory animals.” left out

α-subunit of IR = target: T1, α-subunit of IR (Mus musculus, UniProt P15208); experiment: Cross-linking with Sulfo-SANPAH and Western blot with anti-IR α-subunit antibody; assay type: cell-based; conditions: adipocytes, 200 μM, Sulfo-SANPAH, UV
T1 construct: endogenous in cells; host or cells: 3T3-L1 adipocytes (ATCC)
T1 sequence (P15208 28-748 limits assumed): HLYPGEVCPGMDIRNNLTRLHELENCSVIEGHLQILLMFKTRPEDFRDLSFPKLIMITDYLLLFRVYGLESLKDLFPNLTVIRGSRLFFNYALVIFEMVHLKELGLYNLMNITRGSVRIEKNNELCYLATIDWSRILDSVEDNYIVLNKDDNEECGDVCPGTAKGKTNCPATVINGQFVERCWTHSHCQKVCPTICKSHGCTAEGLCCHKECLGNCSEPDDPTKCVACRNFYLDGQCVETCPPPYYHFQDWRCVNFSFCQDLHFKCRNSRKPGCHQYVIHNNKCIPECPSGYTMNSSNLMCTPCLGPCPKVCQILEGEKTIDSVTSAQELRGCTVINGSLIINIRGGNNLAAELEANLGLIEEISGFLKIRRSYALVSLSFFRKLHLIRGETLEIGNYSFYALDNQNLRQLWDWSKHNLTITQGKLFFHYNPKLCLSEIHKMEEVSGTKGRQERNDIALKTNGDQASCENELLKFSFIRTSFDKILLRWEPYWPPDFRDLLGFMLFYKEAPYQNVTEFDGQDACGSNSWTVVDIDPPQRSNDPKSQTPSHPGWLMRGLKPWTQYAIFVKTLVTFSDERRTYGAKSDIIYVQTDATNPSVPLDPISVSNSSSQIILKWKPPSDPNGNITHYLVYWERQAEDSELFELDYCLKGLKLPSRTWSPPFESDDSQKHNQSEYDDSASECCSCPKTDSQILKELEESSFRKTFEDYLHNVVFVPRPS
T1 sequence (P15208 753-1372 partner limits assumed): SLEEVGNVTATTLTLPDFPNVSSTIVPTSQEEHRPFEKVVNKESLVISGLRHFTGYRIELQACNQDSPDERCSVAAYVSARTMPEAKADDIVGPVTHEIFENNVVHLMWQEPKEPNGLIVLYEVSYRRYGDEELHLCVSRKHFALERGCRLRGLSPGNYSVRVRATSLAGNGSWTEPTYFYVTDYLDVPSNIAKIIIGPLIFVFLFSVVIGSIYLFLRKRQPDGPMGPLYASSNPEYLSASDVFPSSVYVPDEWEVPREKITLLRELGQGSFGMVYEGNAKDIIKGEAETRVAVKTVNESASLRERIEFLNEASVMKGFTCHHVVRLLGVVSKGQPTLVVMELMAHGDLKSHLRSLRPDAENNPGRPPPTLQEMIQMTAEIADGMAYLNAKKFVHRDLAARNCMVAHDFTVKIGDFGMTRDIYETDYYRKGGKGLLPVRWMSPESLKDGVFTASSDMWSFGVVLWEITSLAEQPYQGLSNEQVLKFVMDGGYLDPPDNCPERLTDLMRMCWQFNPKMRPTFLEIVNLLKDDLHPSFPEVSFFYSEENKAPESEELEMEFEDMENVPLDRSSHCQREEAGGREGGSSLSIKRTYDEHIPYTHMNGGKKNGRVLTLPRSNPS
Method: (A) α-PGG binds to IR as measured by a SPR (28). Increasing concentrations of α-PGG was injected into the system to interact with the pure IR attached to the gold surface of the biosensor chip. The binding, represented in arbitrary response units, was automatically plotted against α-PGG concentrations to generate the binding curve. (B) Insulin binding to IR in the absence or presence of α-PGG. Increasing amounts of ^125I-labeled insulin were added to WGA-coated wells containing pre-bound IR isolated from CHO-IR cells in the absence of α-PGG or in the presence of 30 μM or 50 μM of α-PGG. After overnight incubation, removal of excessive ligands, and washing, the bound radioactive insulin was measured. (C) Insulin displacement by α-PGG. Fixed amounts of radioactive insulin (1 nM) were added to each of the WGA-coated wells pre-bound with IR. Increasing amounts of α-PGG were added to the wells to displace the ^125I-labeled insulin. […]
For the cross-linking reaction, sulfosuccinimidyl-6-(4′-azido-2′-nitrophenylamino) hexanoate (Sulfo-SANPAH), a photoactive, non-cleavable cross-linker (31, 32) purchased from Pierce was used to cross link β-PGG to plasma membrane proteins that it interacts with. […] Cells were lysed and the total cell protein was isolated and separated on an 8% reducing SDS-PAGE, transferred to a nylon membrane, and analyzed with an anti-IR α-subunit antibody.

Sequence of insulin (P01317 25-54 limits assumed): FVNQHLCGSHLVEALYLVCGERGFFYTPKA

- binding to insulin (insulin): did not bind to insulin
- gel migration of IR α-subunit after cross-linking (α-subunit of IR): Gel retardation of α-subunit of IR
Structure (SMILES): O=C(OC[C@H]1O[C@H](OC(=O)c2cc(O)c(O)c(O)c2)[C@H](OC(=O)c2cc(O)c(O)c(O)c2)[C@@H](OC(=O)c2cc(O)c(O)c(O)c2)[C@@H]1OC(=O)c1cc(O)c(O)c(O)c1)c1cc(O)c(O)c(O)c1 [α-PGG, alpha 1,2,3,4,6-penta-O-galloyl-D-Glucopyranose]
- duration of blood glucose difference (ob/ob mice [1]; oral 20 mg/kg): at least 5 h
- largest difference in glucose levels vs control group (ob/ob mice [1]; oral 20 mg/kg): about 20%
- glucose tolerance (ob/ob mice [1]; single oral dose 20 mg/kg with glucose 0.4 g/kg): significantly improved
- Akt phosphorylation (Akt): phosphorylated in 3T3-L1 adipocytes in a dose-dependent fashion
- plasma insulin levels (ob/ob mice [2]; hyperinsulinemic ob/ob mice): significantly lower
- duration of anti-hyperinsulinemic effects (ob/ob mice [2]; ob/ob mice): at least 24 hours
